The numbers were not newly measured in patent publication US12597519B2, “Methods for characterizing and treating a cancer type using cancer images” (TESARO, INC., priority 2019, dated 2026), which cites them from elsewhere.

The subject of series [1] is cancer cell lines silenced for BRCA-1 or BRCA-2, or carrying BRCA-1 or BRCA-2 mutations. To be noted: BRCA-defective cells.
Series [2] concerns platinum-sensitive relapsed ovarian cancer.

For `Cc1ccc(S(=O)(=O)O)cc1.NC(=O)c1cccc2cn(-c3ccc([C@@H]4CCCNC4)cc3)nc12` [Niraparib, (3S)-3-[4-{7-(aminocarbonyl)-2H-indazol-2-yl}phenyl]piperidine], the “mechanism of antiproliferative activity” value in series [1] is given as “cell cycle arrest in G2/M followed by apoptosis”.

For `O=C(c1cc(Cc2n[nH]c(=O)c3ccccc23)ccc1F)N1CCN(C(=O)C2CC2)CC1` [olaparib, 4-[(3-{[4-(cyclopropylcarbonyl)piperazin-1-yl]carbonyl}-4-fluorophenyl)methyl]phthalazin-1(2H)-one], the overall survival benefit result in series [2] (interim analysis, intent to treat populations) is “unlikely to translate into an overall survival benefit”. Besides, the “outcome in subset of patients who had BRCA mutations” value in series [2] (planned analysis, BRCA mutation subset) is given as “clear advantage”.
